Drawing on patent US11149052B2, “2′3′-cyclic dinucleotides” (Institute of Organic Chemistry and Biochemistry, ASCR, V.V.I, priority 2018, dated 2021), this text covers ΔTm and EC50 for ten compounds.

The target of experiment [1] is T1, WT STING (truncated human WT STING protein) (Homo sapiens, UniProt Q86WV6, H232R).
T1 construct: truncated human WT STING or AQ STING (amino acid residues 140-343); 8xHis (N, cleaved yes); SUMO (N, cleaved yes); made in house; host or cells: E. coli Rosetta-gami B (DE3)
T1 sequence (Q86WV6 140-343 H232R): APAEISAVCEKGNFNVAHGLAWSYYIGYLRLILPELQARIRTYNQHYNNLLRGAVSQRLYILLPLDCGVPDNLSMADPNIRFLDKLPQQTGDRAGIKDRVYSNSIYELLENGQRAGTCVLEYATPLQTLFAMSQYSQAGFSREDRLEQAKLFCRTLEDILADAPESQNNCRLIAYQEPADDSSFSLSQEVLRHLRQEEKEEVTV
The experiment is described as follows: Differential Scanning Fluorimetry with WT STING. As to conditions: read-out: DSF ΔTm (° C.) WT STING. It is filed as binding. On the procedure: (§1) Purified PCR products were cleaved with restriction enzymes BamHI (cat. #R0136S, NEB, Ipswich, USA) and NotI (cat. #R0189S, NEB, Ipswich, USA) and cloned into the pSUMO vector linearized with the identical enzymes.
(§2) DNase I (cat. #D5025, Sigma Aldrich, Czech Republic) and RNase A (cat. #R6513, Sigma Aldrich, Czech Republic) were added (final concentration […]) together with MgCl2 (final concentration 5 mmol·l^−1) to the homogenate and bacteria were lysed using French Press G-M™ High-Pressure Cell Press Homogenizer (1500 psi, 3 cycles). […] The resin was poured into a chromatography column, washed with 50 ml buffer A (50 mmol·l^−1 TrisCl (pH 8.0), 800 mmol·l^−1 NaCl, 3 mmol·l^−1β-mercaptoethanol; 10% glycerol; 20 mmol·l^−1 imidazole) and 8-His-SUMO tagged STING proteins were eluted with 15 ml buffer A containing 300 mmol·l^−1 imidazole. […] Proteins were concentrated with Amicon® Ultra-15 10 K device (cat. #UFC901008, Merck Millipore, Billerica, USA) and flash frozen in liquid N2.
(§3) Differential Scanning Fluorimetry with WT STING and AQ STING
(§4) 20 μL solutions of the reaction mixtures were pipetted in triplicates into 96 well optical reaction plates and thermal denaturation of samples were performed on real time PCR cycler (LightCycler® 480 Instrument II—Roche, Base^1, Switzerland). The first derivative of the thermal denaturation curves was performed to calculate denaturing temperatures of STING-CDN complexes and STING apoproteins. The thermal shift for each CDN was calculated by subtracting the average denaturing temperature of STING apoprotein from the average denaturing temperature of STING CDN complex.

Experiment [2] addresses human wild type STING (WT STING) (Homo sapiens, UniProt Q86WV6, H232R). As to the kind of experiment: Digitonin assay using 293T wtSTING-FL reporter cells (ISRE firefly luciferase reporter). The experiment is classed as cell-based. As to conditions: 293T wtSTING-FL cells; 30 min in Digitonin buffer, then 5 hours; luciferase read-out; 8-point dose-response curve; read-out: Digitonin assay EC50 (μmol · l^−1) WT STING. From the text: Two complementary oligonucleotides of the sequence […] […] […] […] […] The oligonucleotides were mixed in equal molar amounts, hybridized, and cleaved by restriction endonucleases HindIII (cat. #. R0104S, NEB, Ipswich, USA) and BglII (cat. #R0144S, NEB, Ipswich, USA). Ultimately, they were ligated into plasmid pGL4.27 (cat. #E6651, Promega, Madison, USA) linearized with the same enzymes. As result the sequence with four ISRE sites was placed upstream of the minimum promoter of firefly luciferase reporter gene.
After 5 minutes incubation at room temperature (RT), 250 μL of the mixture was added dropwise to the cells in one well.
Transfected cells were seeded onto poly-D-lysine coated six well plates at density 50,000 cells per 1 cm^2 in DMEM medium with high glucose containing 10% heat inactivated FBS, 30 μg/mL blasticidin (cat. #ant-bl-05, InvivoGen, San Diego, USA), 0.06 mg/ml Penicillin G and 0.1 mg/ml Streptomycin Sulfate (both cat. #. L0018, Biowest, Riverside, USA). The medium was replenished every 3-4 days until visible colonies of cells resistant to blasticidin were formed.
Blasticidin resistant cells stably expressing WT STING were further transfected with […] plasmid following the same procedure as described above. […] Homogeneous culture of stably double transfected cells was prepared by limiting dilution of cells in 96 well plates and wells with cells were selected that originated from a single cell.
The medium was removed next day and three fold serial dilutions of compounds in Digitonin buffer containing 50 mmol·l^−1 HEPES (cat. #H3375, Sigma Aldrich, Czech Republic) pH 7.0, 100 mmol·l^−1 KCl, 3 mmol·l^−1 MgCl2, 0.1 mmol·l^−1 DTT (cat. #D0632, Sigma Aldrich, Czech Republic), 85 mmol·l^−1 Sucrose (cat. #S7903, Sigma Aldrich, Czech Republic), 0.2% BSA (cat. #A2153, Sigma Aldrich, Czech Republic), 1 mmol·l^−1 ATP (cat. #A1852, Sigma Aldrich, Czech Republic), 0.1 mmol·l^−1 GTP (cat. #G8877, Sigma Aldrich, Czech Republic), and 10 μg/mL Digitonin A (cat. #D141, Sigma Aldrich, Czech Republic) were added to the cells. The buffer was removed after 30 minutes incubation at 37° C. with 5% CO2, the cells were washed once with 100 μl of cultivation medium, and 100 IA of medium was added to each well. The plates with cells were incubated for 5 hours at 37° C. with 5% CO2, 50 μl of the medium was removed and 30 μl of ONE-Glo™ Luciferase Assay System reagent (cat. #E6120, Promega, Madison, USA) was added to each well. Luminesce was read on Synergy H1 (Biotek, Winooski, USA).
On the technique in general: A reporter such as luciferase makes a cellular process visible.

Experiment [3] concerns the target T2, AQ STING (truncated human STING G230A-R293Q allelic form) (Homo sapiens, UniProt Q86WV6, G230A/H232R/R293Q).
T2 construct: truncated human WT STING or AQ STING (amino acid residues 140-343); 8xHis (N, cleaved yes); SUMO (N, cleaved yes); made in house; host or cells: E. coli Rosetta-gami B (DE3)
The experiment is described as follows: Differential Scanning Fluorimetry with AQ STING. It is filed as binding. As to conditions: read-out: DSF ΔTm (° C.) AQ STING. On the procedure:
as §1, §2, §3, §4

[4] abbreviates: thermal shift vs apoprotein, 150 μM CDN, 0.1 mg/ml STING protein, SYPRO Orange.

Read-outs that look alike come from different tables or passages of the source. A value given as a limit tells only on which side of the number the result lay.

Chain of human wild type STING (WT STING) (Q86WV6 whole entry H232R): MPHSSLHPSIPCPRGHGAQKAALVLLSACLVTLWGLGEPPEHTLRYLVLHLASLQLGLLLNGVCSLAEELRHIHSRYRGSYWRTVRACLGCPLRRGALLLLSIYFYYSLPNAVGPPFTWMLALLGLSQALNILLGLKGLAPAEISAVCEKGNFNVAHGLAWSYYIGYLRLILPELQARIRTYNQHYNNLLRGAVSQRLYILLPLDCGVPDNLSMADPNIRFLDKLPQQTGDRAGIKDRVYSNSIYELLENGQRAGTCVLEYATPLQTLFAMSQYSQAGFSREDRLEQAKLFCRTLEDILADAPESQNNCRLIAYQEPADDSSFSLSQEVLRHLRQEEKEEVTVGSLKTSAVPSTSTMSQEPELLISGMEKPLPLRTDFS
T2 sequence (Q86WV6 140-343 G230A/H232R/R293Q): as the sequence (Q86WV6 140-343 H232R) above, with G91A, R154Q counted along it

One may read the ΔTm as the change in melting temperature against a reference sample. A word on the EC50: it is the midpoint of the concentration-response curve. For `Nc1ncnc2c1ncn2[C@@H]1O[C@@H]2COP(=O)(O)O[C@@H]3[C@H](F)[C@@H](COP(=O)(O)CO[C@H]2[C@H]1F)O[C@H]3n1cnc2c(=O)[nH]cnc21` [Example 24], the ΔTm at 150 µM in experiment [1] (setting [4]) is 20.4 °C; in experiment [3] (setting [4]) it was 25.7 °C. The EC50 in experiment [2] stood at 20 nM.

In the case of `Nc1ncnc2c1ncn2[C@@H]1O[C@@H]2COP(=O)(O)O[C@@H]3[C@H](O)[C@@H](COP(=O)(O)CO[C@H]2[C@@H]1O)O[C@H]3n1cnc2c(N)ncnc21` [Example 11, (1R,6R,8R,9S,10S,16R,18R,19R)-8,18-bis(6-amino-9H-purin-9-yl)-3,9,13,19-tetrahydroxy-2,4,7,11,14,17-hexaoxa-3λ^5,13λ^5-diphosphatricyclo[14.2.1.0^6,^10]nonadecane-3,13-dione], the results for the ΔTm at 150 µM in experiment [1] (setting [4]) and in experiment [3] (setting [4]) were 2.3 °C and 9.1 °C, respectively. Moreover, the EC50 in experiment [2] was 2500 nM.

Take `Nc1nc2c(ncn2[C@@H]2O[C@@H]3COP(=O)(O)CO[C@@H]4[C@H](O)[C@@H](COP(=O)(O)CO[C@H]3[C@H]2O)O[C@H]4n2cnc3c(=O)[nH]c(N)nc32)c(=O)[nH]1` [Example 9, (1R,7R,9R,10R,11S,17R,19R,20R)-9,19-bis(2-amino-6-oxo-6,9-dihydro-1H-purin-9-yl)-4,10,14,20-tetrahydroxy-2,5,8,12,15,18-hexaoxa-4λ^5,14λ^5-diphosphatricyclo[15.2.1.0^7,^11]icosane-4,14-dione]: the ΔTm at 150 µM in experiment [1] came out at 0.3 °C; in experiment [3], 1.1 °C. Besides, the EC50 in experiment [2] is more than 50000 nM.

In the case of `Nc1nc2c(ncn2[C@@H]2O[C@@H]3COP(=O)(O)CO[C@H]4[C@@H](O)[C@H](n5cnc6c(N)ncnc65)O[C@@H]4COP(=O)(O)O[C@@H]2C3)c(=O)[nH]1` [Example 21, (1R,6R,8R,9R,10S,16S,18R)-18-(2-amino-6-oxo-6,9-dihydro-1H-purin-9-yl)-8-(6-amino-9H-purin-9-yl)-3,9,13-trihydroxy-2,4,7,11,14,17-hexaoxa-3λ^5,13λ^5-diphosphatricyclo[14.2.1.0^6,^10]nonadecane-3,13-dione], the figures for the ΔTm at 150 µM in experiment [1] (setting [4]) and in experiment [3] (setting [4]) were 14.2 °C and 21 °C, respectively. For the same compound, in experiment [2], the concentration giving a half-maximal response (EC50) was determined as 6 nM.

Regarding `Nc1nc2c(ncn2[C@@H]2O[C@@H]3COP(=O)(O)CO[C@H]4C[C@H](n5cnc6c(N)ncnc65)O[C@@H]4COP(=O)(O)O[C@@H]2[C@@H]3O)c(=O)[nH]1` [Example 15, (1R,6R,8R,10S,16R,18R,19R)-18-(2-amino-6-oxo-6,9-dihydro-1H-purin-9-yl)-8-(6-amino-9H-purin-9-yl)-3,13,19-trihydroxy-2,4,7,11,14,17-hexaoxa-3λ^5,13λ^5-diphosphatricyclo[14.2.1.0^6,^10]nonadecane-3,13-dione], the ΔTm at 150 µM in experiment [1] (setting [4]) was determined as 14.4 °C; in experiment [3] (setting [4]) it was 19.2 °C. Also, the EC50 in experiment [2] came out at 10 nM.

Consider `Nc1ncnc2c1ncn2[C@@H]1O[C@@H]2COP(=O)(O)O[C@@H]3[C@H](O)[C@@H](COP(=O)(O)CO[C@H]2[C@H]1O)O[C@H]3n1cnc2c(N)ncnc21` [Example 8, (1R,6R,8R,9R,10S,16R,18R,19R)-8,18-bis(6-amino-9H-purin-9-yl)-3,9,13,19-tetrahydroxy-2,4,7,11,14,17-hexaoxa-3λ^5,13λ^5-diphosphatricyclo[14.2.1.0^6,^10]nonadecane-3,13-dione], for which the values for the ΔTm at 150 µM in experiment [1] (setting [4]) and in experiment [3] (setting [4]) were 3 °C and 9.4 °C, respectively. Besides, the EC50 in experiment [2] came to 400 nM.

Take `Nc1nc2c(ncn2[C@@H]2O[C@@H]3COP(=O)(O)CO[C@H]4C[C@H](n5cnc6c(N)ncnc65)O[C@@H]4COP(=O)(O)O[C@@H]2[C@@H]3F)c(=O)[nH]1` [Example 20, (1S,6R,8R,10S,16R,18R,19R)-18-(2-amino-6-oxo-6,9-dihydro-1H-purin-9-yl)-8-(6-amino-9H-purin-9-yl)-19-fluoro-3,13-dihydroxy-2,4,7,11,14,17-hexaoxa-3λ^5,13λ^5-diphosphatricyclo[14.2.1.0^6,^10]nonadecane-3,13-dione]: the ΔTm at 150 µM in experiment [1] (setting [4]) is 17.2 °C; in experiment [3] (setting [4]), 23.5 °C. Also, the EC50 in experiment [2] came out at 5 nM.

With `Nc1ncnc2c1ncn2[C@@H]1O[C@@H]2COP(=O)(O)CO[C@@H]3[C@@H](O)[C@@H](COP(=O)(O)CO[C@@H]2[C@H]1O)O[C@H]3n1cnc2c(N)ncnc21` [Example 12, (1R,7R,9R,10R,11R,17R,19R,20S)-9,19-bis(6-amino-9H-purin-9-yl)-4,10,14,20-tetrahydroxy-2,5,8,12,15,18-hexaoxa-4λ^5,14λ^5-diphosphatricyclo[15.2.1.0^7,^11]icosane-4,14-dione], the ΔTm at 150 µM in experiment [1] (setting [4]) and in experiment [3] (setting [4]) was 0 °C in each case. Also, the EC50 in experiment [2] was more than 50000 nM.

As for `Nc1nc2c(ncn2[C@@H]2O[C@@H]3COP(=O)(O)CO[C@H]4[C@@H](F)[C@H](n5cnc6c(N)ncnc65)O[C@@H]4COP(=O)(O)O[C@@H]2[C@@H]3O)c(=O)[nH]1` [Example 10, (1R,6R,8R,9R,10R,16R,18R,19R)-18-(2-amino-6-oxo-6,9-dihydro-1H-purin-9-yl)-8-(6-amino-9H-purin-9-yl)-9-fluoro-3,13,19-trihydroxy-2,4,7,11,14,17-hexaoxa-3λ^5,13λ^5-diphosphatricyclo[14.2.1.0^6,^10]nonadecane-3,13-dione], the ΔTm at 150 µM was determined as 20.9 °C in experiment [1] (setting [4]) and 27 °C in experiment [3] (setting [4]). In experiment [2], the EC50 is 20 nM.

Take `Nc1nc2c(ncn2[C@@H]2O[C@@H]3COP(=O)(O)CO[C@H]4[C@@H](F)[C@H](n5cnc6c(N)ncnc65)O[C@@H]4COP(=O)(O)O[C@@H]2[C@@H]3F)c(=O)[nH]1` [Example 17, (1S,6R,8R,9R,10R,16R,18R,19R)-18-(2-amino-6-oxo-6,9-dihydro-1H-purin-9-yl)-8-(6-amino-9H-purin-9-yl)-9,19-difluoro-3,13-dihydroxy-2,4,7,11,14,17-hexaoxa-3λ^5,13λ^5-diphosphatricyclo[14.2.1.0^6,^10]nonadecane-3,13-dione]: the ΔTm at 150 µM amounted to 21.7 °C in experiment [1] (setting [4]) and 27.3 °C in experiment [3] (setting [4]). For the same compound, in experiment [2], the EC50 was determined as 20 nM.
